Results on one compound are retold here after US9913809B1, “Anti-cancer activity of (E)-1-(3′,4′-dimethoxyphenyl) butadiene” (SAMI LABS LIMITED, priority 2016, dated 2018).

Converted amounts (≈) assume the structure as drawn.

Experiment [1] deals with PANC-1 cancer cell line (pancreatic carcinoma cells). In words: MTT cytotoxicity assay, PANC-1. The experiment is classed as cell-based. The settings on record: Homo sapiens, PANC-1, pancreatic carcinoma. The protocol: (§1) Human pancreatic PANC-1 cancer cell line (pancreatic carcinoma cells), human prostate DU145 cancer cell line (prostate carcinoma), human ovarian cancer SKOV3 (ovarian carcinoma) cell line, colon Caco-2 cancer cell line (Colon Carcinoma), lung A549 cancer cell line (Lung carcinoma), lymphoblastoma K562 cancer cell line, melanoma B16F1 cancer cell line and colorectal HCT cancer cell line (Colorectal carcinoma), were grown and cultured using standard protocols known in the art. The cancer cell lines were treated with DMPBD in varying concentrations for measuring cytotoxicity. The estimation of the viability assay of the cells was done by the MTT (3-(4,5-dimethylthiazol-2-yl)-2,5-diphenyltetrazolium bromide) colorimetric assay. The MTT Assay measures the cell proliferation rate and conversely, when metabolic events lead to apoptosis or necrosis, the reduction in cell viability. The data is analyzed by plotting cell number versus absorbance allowing the quantification of changes in cell proliferation. The rate of tetrazolium reduction is proportional to the rate of cell proliferation. […]
(§2) The MTT Assay as performed was adapted from (1) Tim Mosmann. […] A tetrazolium-based colorimetric MTT assay to quantitate human monocyte mediated cytotoxicity against leukemic cells from cell lines and patients with acute myeloid leukemia. […]

Experiment [2] relates to L-selectin (CD 62L). Kind of experiment: Flow cytometry, L-selectin expression in pancreatic carcinoma cells. The experiment is classed as cell-based, human. As to conditions: flow cytometric studies.
The subject of experiment [3] is SKOV3 (ovarian carcinoma) cell line. Kind of experiment: MTT cytotoxicity assay, SKOV3. Format: cell-based. As to conditions: Homo sapiens, SK-OV-3. The protocol:
as §1, §2

The test system of experiment [4] is DU145 cancer cell line (prostate carcinoma). Kind of experiment: MTT cytotoxicity assay, DU145. The experiment is classed as cell-based. The settings on record: Homo sapiens, DU 145, prostate carcinoma. The protocol: as §1, §2
Experiment [5] has as its system P-selectin (CD 62P). In words: Flow cytometry, P-selectin expression in pancreatic carcinoma cells. Format: cell-based, human. As to conditions: flow cytometric studies.
The subject of experiment [6] is lymphoblastoma K562 cancer cell line. In words: MTT cytotoxicity assay, K562. The experiment is classed as cell-based. The settings on record: Homo sapiens. The protocol:
as §1, §2

In experiment [7] the test system is E-selectin (CD 62E). Kind of experiment: Flow cytometry, E-selectin expression in pancreatic carcinoma cells. Format: cell-based, human. The settings on record: flow cytometric studies.
Experiment [8] deals with A549 cancer cell line (Lung carcinoma). In words: MTT cytotoxicity assay, A549. Format: cell-based. The settings on record: Homo sapiens. The protocol:
as §1, §2

For experiment [9], the system named is melanoma B16F1 cancer cell line. Kind of experiment: MTT cytotoxicity assay, B16F1. Format: cell-based, human. As to conditions: Mus musculus, B16-F1. The protocol:
as §1, §2

The test system of experiment [10] is P-selectin (CD 62P). Kind of experiment: Flow cytometry, P-selectin expression in K562 lymphoblastoma cells. Format: cell-based, human. As to conditions: TNF-alpha and IL-1beta 10 ng/ml, 72 hours.
The test system of experiment [11] is P-selectin (CD 62P). In words: Flow cytometry, P-selectin expression in LNCap prostate carcinoma cells. The settings on record: DMPBD 70 μg/ml, TNF-alpha and IL-1beta 10 ng/ml, 72 hours. The experiment is classed as cell-based, human.
Experiment [12] deals with HCT cancer cell line (Colorectal carcinoma). Kind of experiment: MTT cytotoxicity assay, HCT. The experiment is classed as cell-based. As to conditions: Homo sapiens. The protocol:
as §1, §2

The test system of experiment [13] is L-selectin (CD 62L). Kind of experiment: Flow cytometry, L-selectin expression in LNCap prostate carcinoma cells. The experiment is classed as cell-based, human. The settings on record: DMPBD 20 μg/ml, TNF-alpha and IL-1beta 10 ng/ml, 72 hours.
The subject of experiment [14] is L-selectin (CD 62L). In words: Flow cytometry, L-selectin expression in K562 lymphoblastoma cells. Format: cell-based, human. As to conditions: DMPBD 20 μg/ml, TNF-alpha and IL-1beta 10 ng/ml, 72 hours.
The test system of experiment [15] is P-selectin (CD 62P). In words: Flow cytometry, P-selectin expression in HCT colorectal carcinoma cells. The experiment is classed as cell-based, human. As to conditions: TNF-alpha and IL-1beta 10 ng/ml, 72 hours.
Experiment [16] relates to Caco-2 cancer cell line (Colon Carcinoma). In words: MTT cytotoxicity assay, Caco-2. Format: cell-based. As to conditions: Homo sapiens, Caco-2, colon carcinoma. The protocol: as §1, §2
Experiment [17] has as its system L-selectin (CD 62L). Kind of experiment: Flow cytometry, L-selectin expression in HCT colorectal carcinoma cells. Format: cell-based, human. As to conditions: TNF-alpha and IL-1beta 10 ng/ml, 72 hours.

Regarding `C=C/C=C/c1ccc(OC)c(OC)c1` [DMPBD, (E)-1-(3′, 4′-Dimethoxyphenyl) butadiene], the IC50 in experiment [1] is 4.2 mg/L (≈ 22.1 µM); in experiment [3] it was 13.5 mg/L (≈ 71 µM); in experiment [4], 8.6 mg/L (≈ 45.2 µM); in experiment [6], 22.5 mg/L (≈ 118 µM); in experiment [8], 30.2 mg/L (≈ 159 µM); in experiment [9], 26.4 mg/L (≈ 139 µM). Besides, the IC50 was found to be 25.5 mg/L (≈ 134 µM) in [12] and 39.3 mg/L (≈ 207 µM) in [16]. Besides, the “expression of L-selectin” value in [2] is on record as “significant fold decrease”. For the same compound, the “expression of P-selectin” value in experiment [5] is given as “significant fold decrease”. Further, the “expression of E-selectin” value in [7] is reported as “significant fold decrease”. For the same compound, the “% Reduction of P-selectin expression” value in [10] (DMPBD 10 μg/ml) is listed as 11.6%; in experiment [10] (DMPBD 20 μg/ml), 35.4%; in experiment [11] it was 11.1%; in experiment [15] (DMPBD 10 μg/ml), 11.8%; in experiment [15] (DMPBD 20 μg/ml) it was 27.8%. Also, the “% Reduction of L-selectin expression” value was found to be 7.3% in [13], 30.3% in experiment [14], 11.3% in experiment [17] (DMPBD 10 μg/ml) and 21.1% in experiment [17] (DMPBD 20 μg/ml).
